Patent publication US9693997B2, “Antiviral compounds” (priority 2013, dated 2017)
Counter-ions that a name gives are not always drawn.

Assays:
[1] = system: pseudotyped VSV G particles (VSVpp) in Huh7-high CD81 cells; assay: microbe, parasite or virus in culture; format: cell-based, vesicular stomatitis virus; details: Vesicular stomatitis virus, 72 h, read-out: VSVpp (EC50, μM)
[2] = system: Pseudotyped HCV GT1b particles (HCVpp), entry into Huh7-high CD81 cells; assay: microbe, parasite or virus in culture; format: cell-based, HCV GT1b Con1 strain; details: Hepatitis C virus, GT1B, 72 h, read-out: HCVpp GT-1b (EC50, μM)

SMILES | EC50 [1] | EC50 [2]
Nc1nc(Nc2cc(Cl)c(-c3ccc(OC4CCCNC4)cc3)c(C(F)(F)F)c2)n[nH]1 (stereo not drawn) [Compound 130, N*3*-[6-Chloro-4′-(piperidin-3-yloxy)-2-trifluoromethyl-biphenyl-4-yl]-1H-[1,2,4]triazole-3,5-diamine hydrochloride] | 8.67 µM | 0.055 µM
CC(C)(C)CCN1CCCC(Oc2ccc(-c3c(Cl)cc(Nc4n[nH]c(N)n4)cc3C(F)(F)F)cc2)C1 (stereo not drawn) [Compound 131, N*3*-{6-Chloro-4′-[1-(3,3-dimethyl-butyl)-piperidin-3-yloxy]-2-trifluoromethyl-biphenyl-4-yl}-1H-[1,2,4]triazole-3,5-diamine hydrochloride] | 7.02 µM | 0.095 µM
CN1CCCC(Oc2ccc(-c3c(Cl)cc(Nc4n[nH]c(N)n4)cc3C(F)(F)F)cc2)C1 (stereo not drawn) [Compound 132, N*3*-[6-Chloro-4′-(1-methyl-piperidin-3-yloxy)-2-trifluoromethyl-biphenyl-4-yl]-1H-[1,2,4]triazole-3,5-diamine hydrochloride] | 6.13 µM | 0.088 µM
Nc1nc(Nc2cc(Cl)c(-c3ccc(OC4CCCN(CCC(F)(F)F)C4)cc3)c(C(F)(F)F)c2)n[nH]1 (stereo not drawn) [Compound 133, N*3*-{6-Chloro-2-trifluoromethyl-4′-[1-(3,3,3-trifluoro-propyl)-piperidin-3-yloxy]-biphenyl-4-yl}-1H-[1,2,4]triazole-3,5-diamine hydrochloride] | > 10 µM | 0.13 µM
CC(C)(C)OC(=O)NCCOc1ccc(-c2c(Cl)cc(Nc3n[nH]c(N)n3)cc2C(F)(F)F)cc1 [Compound 134, {2-[4′-(5-Amino-1H-[1,2,4]triazol-3-ylamino)-6′-chloro-2′-trifluoromethyl-biphenyl-4-yloxy]-ethyl}-carbamic acid tert-butyl ester] | > 10 µM | 0.081 µM
NCCOc1ccc(-c2c(Cl)cc(Nc3n[nH]c(N)n3)cc2C(F)(F)F)cc1 [Compound 135, N*3*-[4′-(2-Amino-ethoxy)-6-chloro-2-trifluoromethyl-biphenyl-4-yl]-1H-[1,2,4]-triazole-3,5-diamine hydrochloride] | > 10 µM | 0.077 µM
CC(C)(C)CCNCCOc1ccc(-c2c(Cl)cc(Nc3n[nH]c(N)n3)cc2C(F)(F)F)cc1 [Compound 136, N*3*-{6-Chloro-4′-[2-(3,3-dimethyl-butylamino)-ethoxy]-2-trifluoromethyl-biphenyl-4-yl}-1H-[1,2,4]triazole-3,5-diamine hydrochloride] | 3.08 µM | 0.005 µM
CC(C)(C)CCN(CCOc1ccc(-c2c(Cl)cc(Nc3n[nH]c(N)n3)cc2C(F)(F)F)cc1)CCC(C)(C)C [Compound 137, N*3*-(4′-{2-[Bis-(3,3-dimethyl-butyl-amino)-ethoxy}-6-chloro-2-trifluoromethyl-biphenyl-4-yl]-1H-[1,2,4]triazole-3,5-diamine] | > 10 µM | 0.062 µM
CC(C)(C)OC(=O)N1CCC(Oc2ccc(-c3c(Cl)cc(Nc4n[nH]c(N)n4)cc3C(F)(F)F)cc2)CC1 [Compound 138, 4-[4′-(5-Amino-1H-[1,2,4]triazol-3-ylamino)-6′-chloro-2′-trifluoromethyl-biphenyl-4-yloxy]-piperidine-1-carboxylic acid tert-butyl ester] | > 10 µM | 0.162 µM
Nc1nc(Nc2cc(Cl)c(-c3ccc(OC4CCNCC4)cc3)c(C(F)(F)F)c2)n[nH]1 [Compound 139, N*3*-[6-Chloro-4′-(piperidin-4-yloxy)-2-trifluoromethyl-biphenyl-4-yl]-1H-[1,2,4]triazole-3,5-diamine hydrochloride] | 5.66 µM | 0.042 µM
Nc1nc(Nc2cc(Cl)c(-c3ccc(OC4CCN(CCC(F)(F)F)CC4)cc3)c(C(F)(F)F)c2)n[nH]1 [Compound 140, N*3*-{6-Chloro-2-trifluoromethyl-4′-[1-(3,3,3-trifluoro-propyl)-piperidin-4-yloxy]-biphenyl-4-yl}-1H-[1,2,4]triazole-3,5-diamine hydrochloride] | > 10 µM | 0.111 µM
CS(=O)(=O)CCN1CCC(Oc2ccc(-c3c(Cl)cc(Nc4n[nH]c(N)n4)cc3C(F)(F)F)cc2)CC1 [Compound 141, N*3*-{6-Chloro-4′-[1-(2-methanesulfonyl-ethyl)-piperidin-4-yloxy]-2-trifluoromethyl-biphenyl-4-yl}-1H-[1,2,4]triazole-3,5-diamine hydrochloride] | > 10 µM | 0.194 µM
CS(=O)(=O)CCCN1CCC(Oc2ccc(-c3c(Cl)cc(Nc4n[nH]c(N)n4)cc3C(F)(F)F)cc2)CC1 [Compound 142, N*3*-{6-Chloro-4′-[1-(3-methanesulfonyl-propyl)-piperidin-4-yloxy]-2-trifluoromethyl-biphenyl-4-yl}-1H-[1,2,4]triazole-3,5-diamine hydrochloride] | > 10 µM | 0.242 µM
COCCN1CCC(Oc2ccc(-c3c(Cl)cc(Nc4n[nH]c(N)n4)cc3C(F)(F)F)cc2)CC1 [Compound 143, N*3*-{6-Chloro-4′-[1-(2-methoxy-ethyl)-piperidin-4-yloxy]-2-trifluoromethyl-biphenyl-4-yl}-1H-[1,2,4]triazole-3,5-diamine hydrochloride] | 8.98 µM | 0.231 µM
Nc1nc(Nc2ccc(-c3ccccc3F)c(Cl)c2)n[nH]1 [Compound 146, N*3*-(2-Chloro-2′-fluoro-biphenyl-4-yl)-1H-[1,2,4]triazole-3,5-diamine] | 29.4 µM | 2.88 µM
Nc1nc(Nc2ccc(-c3ccccc3)c(C(F)(F)F)c2)n[nH]1 [Compound 149, N*3*-(2-Trifluoromethyl-biphenyl-4-yl)-1H-[1,2,4]triazole-3,5-diamine] | 29.2 µM | 0.581 µM
Nc1nc(Nc2ccc(-c3ccccc3F)c(C(F)(F)F)c2)n[nH]1 [Compound 150, N*3*-(2′-Fluoro-2-trifluoromethyl-biphenyl-4-yl)-1H-[1,2,4]triazole-3,5-diamine] | 21.3 µM | 0.866 µM
Nc1nc(Nc2ccc(-c3ccc(F)cc3)c(C(F)(F)F)c2)n[nH]1 [Compound 151, N*3*-(4′-Fluoro-2-trifluoromethyl-biphenyl-4-yl)-1H-[1,2,4]triazole-3,5-diamine] | 26.5 µM | 0.356 µM
Nc1nc(Nc2ccc(-c3ccc(F)c(F)c3)c(C(F)(F)F)c2)n[nH]1 [Compound 152, N*3*-(3′,4′-Difluoro-2-trifluoromethyl-biphenyl-4-yl)-1H-[1,2,4]triazole-3,5-diamine] | 20.4 µM | 0.575 µM
Nc1nc(Nc2ccc(-c3ccccc3Cl)c(C(F)(F)F)c2)n[nH]1 [Compound 153, N*3*-(2′-Chloro-2-trifluoromethyl-biphenyl-4-yl)-1H-[1,2,4]triazole-3,5-diamine] | 9.61 µM | 1.81 µM
CS(=O)(=O)c1ccc(-c2ccc(Nc3n[nH]c(N)n3)cc2Cl)cc1 [Compound 154, N*3*-(2-Chloro-4′-methanesulfonyl-biphenyl-4-yl)-1H-[1,2,4]triazole-3,5-diamine] | 16.4 µM | 2.47 µM
Nc1nc(Nc2ccc(-c3ccccc3Cl)c(Cl)c2)n[nH]1 [Compound 155, N*3*-(2,2′-Dichloro-biphenyl-4-yl)-1H-[1,2,4]triazole-3,5-diamine] | 7.46 µM | 1.66 µM
CSc1ccc(-c2ccc(Nc3n[nH]c(N)n3)cc2Cl)c(F)c1 [Compound 156, N*3*-(2-Chloro-2′-fluoro-4′-methylsulfanyl-biphenyl-4-yl)-1H-[1,2,4]triazole-3,5-diamine] | 11.3 µM | 3.77 µM
CS(=O)(=O)c1ccc(-c2ccc(Nc3n[nH]c(N)n3)cc2Cl)c(F)c1 [Compound 157, N3-(2-chloro-2′-fluoro-4′-(methylsulfonyl)biphenyl-4-yl)-1H-1,2,4-triazole-3,5-diamine] | 5.16 µM | 1.33 µM
NC(=O)c1cccc(-c2c(Cl)cc(Nc3n[nH]c(N)n3)cc2Cl)c1 [Compound 158, 4′-(5-amino-1H-1,2,4-triazol-3-ylamino)-2′,6′-dichlorobiphenyl-3-carboxamide] | > 10 µM | 0.539 µM
Nc1nc(Nc2cc(Cl)c(-c3ccc(S(=O)(=O)NCCO)cc3)c(Cl)c2)n[nH]1 [Compound 160, 4′-(5-Amino-1H-[1,2,4]triazol-3-ylamino)-2′,6′-dichloro-biphenyl-4-sulfonic acid (2-hydroxy-ethyl)-amide] | 10.6 µM | 0.063 µM
Nc1nc(Nc2cc(Cl)c(-c3ccc(S(=O)(=O)NCCO)cc3)c(C(F)(F)F)c2)n[nH]1 [Compound 161, 4′-(5-Amino-1H-[1,2,4]triazol-3-ylamino)-2′-chloro-6′-trifluoromethyl-biphenyl-4-sulfonic acid (2-hydroxy-ethyl)-amide] | 26.8 µM | 0.058 µM
Nc1nc(Nc2cc(Cl)c(-c3ccc(S(=O)(=O)CCO)cc3)c(C(F)(F)F)c2)n[nH]1 [Compound 162, 2-[4′-(5-Amino-1H-[1,2,4]triazol-3-ylamino)-2′-chloro-6′-trifluoromethyl-biphenyl-4-sulfonyl]-ethanol] | > 10 µM | 0.126 µM
COc1cc(-c2c(Cl)cc(Nc3n[nH]c(N)n3)cc2C(F)(F)F)ccc1S(=O)(=O)NC1CCN(C(=O)OC(C)(C)C)CC1 [Compound 163, tert-butyl 4-(4′-(5-amino-1H-1,2,4-triazol-3-ylamino)-2′-chloro-3-methoxy-6′-(trifluoromethyl)biphenyl-4-ylsulfonamido)piperidine-1-carboxylate] | > 10 µM | 0.005 µM
CC(C)(C)NS(=O)(=O)c1ccc(-c2c(Cl)cc(Nc3n[nH]c(N)n3)cc2Cl)cc1 [Compound 164, 4′-(5-amino-1H-1,2,4-triazol-3-ylamino)-N-tert-butyl-2′,6′-dichlorobiphenyl-4-sulfonamide] | 7.06 µM | 0.004 µM
